Earlier results in patent publication US20070231312A1, “NUTRITIONAL SUPPLEMENT FOR PREGNANT FEMALES” (priority 2006, published 2007).
Values belong to the molecule of their own block, whether it stands above or below them.

Tests used:
[1] = system: women at high risk for developing preeclampsia; settings: treatment group; 1000 μg. per day for 6 to 8 weeks during late gestation; placebo 22.7%
[2] = supplementation in pregnancy
primigravida women = settings: 2 mg. twice daily beginning at 16-20 wks; placebo 17.7%, P<0.05
glutathione peroxidase = settings: placental homogenates from late human gestation
[3] = system: oxidative mitochondrial damage; settings: in vitro studies, ischemia reperfusion model

Structure (SMILES): COC(=O)[C@@H](N)CCCNC(=N)N[N+](=O)[O-] [L-NAME, N^G-nitro-L-arginine methyl ester]
- effects on blood pressure, fetal growth and proteinuria (pregnant rats): elevated blood pressure, fetal retarded growth and proteinuria

Structure (SMILES): [Se] [Selenium]
- incidence of pregnancy-induced hypertension [1]: 7.7%

- level in maternal serum [2]: increase
Structure (SMILES): CC1=C(/C=C/C(C)=C/C=C/C(C)=C/C=C/C=C(C)/C=C/C=C(C)/C=C/C2=C(C)CCCC2(C)C)C(C)(C)CCC1 [beta-carotene]

Structure (SMILES): CC(C)=CCC/C(C)=C/C=C/C(C)=C/C=C/C(C)=C/C=C/C=C(C)/C=C/C=C(C)/C=C/C=C(\C)CCC=C(C)C [lycopene, Lycopene]
- women developing preeclampsia (primigravida women): 8.6%

- glutathione peroxidase activity (glutathione peroxidase): reduction
Structure (SMILES): COc1ccc2[nH]cc(CCNC(C)=O)c2c1 [melatonin, Melatonin]
- protection against oxidative mitochondrial damage [3]: protects against oxidative mitochondrial damage
